Source: ChEMBL document CHEMBL1153810, “Sesquiterpene lactones from the root tubers of Lindera aggregata” (J Nat Prod, 2009)

System: HepG2
Experiment: Hepatoprotective activity in human HepG2 cells assessed as inhibition of H2O2- induced oxidative damage after 3 hrs by leucocrstal violet dye treated 1 hr before H2O2 challenge
Assay type: functional, cell-based

Row | Compound | EC50
1 | C=C1CC=C[C@]2(C)C[C@]3(O)OC(=O)C(C)C3=C[C@@H]12 (some centres undefined) [HYDROXYLINDESTENOLIDE] | 42.4 µM
2 | CC1=CC[C@@H](O)[C@]2(C)CC3(O)OC(=O)C(C)=C3[C@H](O)[C@@H]12 (some centres undefined) [LINDERAGALACTONE E] | 67.5 µM
3 | C/C1=C\CCC2=C[C@@H](OC2=O)c2c(C)coc2C1 [LINDERALACTONE] | 98 µM
4 | C/C1=C\CC[C@]23O[C@H]2[C@@H](OC3=O)c2c(C)coc2C1 [LINDERANE] | 167 µM
